Assay results as given in ChEMBL document CHEMBL3124746, “Triazine Analogues as NS5B Inhibitors for the Treatment of HCV” (ACS Med Chem Lett, 2014).

Test system: Hepatitis C virus
Assay: Antiviral activity against HCV infected in human HuH7 cells assessed as inhibition of viral replication after 2 days by luciferase reporter gene assay
Assay type: functional, organism-based, Hepacivirus hominis
Settings: Huh-7, 48 h

Row | EC50 | SMILES
1 | 0.16 nM | COC(=O)[C@@H](CCNC(=O)C(=O)Nc1cccc(OC(F)(F)F)c1)NC(=O)c1ccc(Nc2nc(NC3(c4ccc(Cl)cc4)CC3)nc(OCC(F)(F)F)n2)cc1
2 | 0.69 nM | CNC(=O)C(=O)NC[C@@H](NC(=O)c1ccc(Nc2nc(NC3(c4ccc(Cl)cc4)CC3)nc(OCC(F)(F)F)n2)cc1)C(=O)O
